According to PubChem BioAssay (NCI):
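96-well plates; 48 h exposure; 5 concentrations. Endpoints by linear interpolation between flanking doses. Not reached: highest tested concentration assigned. TGI denotes the concentration required for complete inhibition of growth.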 *1 amine or outer side, *2 acyl side, *3 side chain or, on linkers, in order; H or OH if unused. Where a SMILES comes first, the peptide text is derived from it. [ ]: non-standard residue; d: D form. The star is where a group is joined. ξ: configuration not given here. NMeY = CN[C@@H](Cc1ccc(O)cc1)C(=O)O; Ethylenediamine = C(CN[*:2])N[*:1]; ξNMeL = CNC(CC(C)C)C(=O)O; Cbz = O=C(OCc1ccccc1)*; Lac = C[C@H](O)C(=O)O; ξA = CC(N)C(=O)O

Tests used:
Assay in all cases: NCI tumour cell line growth inhibition, 48 h
[1] = test system: BT-549 breast
[2] = test system: CAKI-1 renal
[3] = test system: HCT-116 colon
[4] = test system: HL-60(TB) leukemia
[5] = test system: HOP-62 NSCLC
[6] = test system: HS 578T breast
[7] = test system: HT29 colon
[8] = test system: IGROV1 ovarian
[9] = test system: K-562 leukemia
[10] = test system: LOX IMVI melanoma
[11] = test system: M14 melanoma
[12] = test system: MDA-N
[13] = test system: NCI-H226 lung
[14] = test system: NCI-H522 lung
[15] = test system: RPMI-8226 leukemia
[16] = test system: SN12C renal
[17] = test system: SNB-75 CNS
[18] = test system: SR leukemia
[19] = test system: U251 CNS
[20] = test system: UACC-257 melanoma

Structure (SMILES)	TGI [1] [µM]	TGI [2] [µM]	TGI [3] [µM]	TGI [4] [µM]	TGI [5] [µM]	TGI [6] [µM]	TGI [7] [µM]	TGI [8] [µM]	TGI [9] [µM]	TGI [10] [µM]	TGI [11] [µM]	TGI [12] [µM]	TGI [13] [µM]	TGI [14] [µM]	TGI [15] [µM]	TGI [16] [µM]	TGI [17] [µM]	TGI [18] [µM]	TGI [19] [µM]	TGI [20] [µM]
CC(=O)c1c(SCCN2CCOCC2)n(-c2ccccc2)c(=S)n(-c2ccccc2)c1=O	43	> 52.3	30.5	51.9	> 65	> 100	52.9	34.6	> 94.2	26	30.2	47.9	> 73.4	48.4	> 29.4	34.4	> 55.1	> 100	> 57	29.2
C=C(Cl)/C(=C\Cl)CCC(Cl)C(C)C (stereo not given)	> 100	> 100	> 100	> 100	> 100	> 100	> 100	> 100	> 100	> 100	> 100	> 100	> 100	> 100	> 100	> 100	> 100	> 100	> 100	> 100
Cc1ccc(/C=C2/N=C(N/N=C\C(O)C(O)C(O)CO)NC2=O)cc1 (stereo not given)	> 100	> 100	> 100	> 100	> 100	> 100	> 100	> 100	> 100	> 100	> 100	> 100	> 100	> 100	> 100	> 100	> 100	> 100	> 100	> 100
CCCN(CCC)C(=S)N/N=C(/C)c1ccccc1O	47.9	> 100	18.4	> 29.5	52.8	> 100	> 100	19.3	> 100	> 100	18.8	> 100	> 41	25.5	> 57.7	26	35.4	8.92	> 57.8	27.6
COc1cccc2c1C1(O)C2CCCCCCCCCC12OCCCO2 (stereo not given)	> 100	> 100	> 100	> 47.8	> 100	> 100	> 59.2	> 100	> 100	> 61.8	> 100	> 100	> 94.2	> 96.5	> 80.1	> 100	> 91.8	35.6	> 100	> 100
Cc1cc(S(=O)(=O)Nc2nnc3c4ccccc4cnn23)c(S)cc1Cl	> 92.3	> 100	> 100	> 100	> 100	> 89	> 100	> 100	> 100	> 100	> 100	> 100	> 69.3	> 100	> 100	> 100	> 100	> 100	> 84.2	> 100
O=[N+]([O-])c1ccc(-n2nc3ccc4c(no[n+]4[O-])c3[n+]2[O-])c([N+](=O)[O-])c1	9.49	6.06	3.74	5.43	10.1	8.6	15.1	3.4	5.75	4.33	3.29	4.47	23.3	4.03	6.8	7.03	23.5	> 21.4	7.6	3.65
COc1ccc(C[C@@H](C(=O)NCCNC(=O)C(CC(C)C)N(C)C(=O)[C@@H]2CCCN2C(=O)[C@H](C)O)N(C)C(=O)[C@@H]2CCCN2C(=O)[C@H](CC(C)C)NC(=O)C(C)NC(=O)OCc2ccccc2)cc1 (stereo not given in full) (Cbz-[ξA]LP[NMeY](Me)-{Ethylenediamine-ξNMeL-Pro-Lac})	> 100	> 100	> 100	> 100	> 100	> 100	> 100	> 100	> 100	> 100	> 100	> 100	> 100	> 100	> 100	> 100	> 100	> 100	> 100	> 100
Cc1cccc(NC(=O)O/N=C(\Cl)C(C)C)c1	12.2	3.17	11.4	4.27	34.5	63.7	27.2	33.8	> 100	3.67	16.4	25	33.5	2.99	10.5	10.3	33.1	4.4	43.2	31.5
CN(CCNC(=O)c1c[nH]c2c1ccc1ccccc12)CCNC(=O)c1c[nH]c2c1ccc1ccccc12	26.9	10.1	3.39	4.29	6.03	10.5	3.5	3.08	3.31	3.09	3.52	5.63	40.5	3.45	15.6	11.7	3.38	4.69	4.03	3.94
CNC(=O)N(CCC#N)CCN(C(=O)N(C)C)c1ccccc1	> 100	> 100	> 100	> 100	> 100	> 100	> 100	> 100	> 100	> 100	> 100	> 100	> 100	> 100	> 100	> 100	> 100	> 100	> 100	> 100
CCOc1ccccc1NC(=O)C(=O)C(/C(=N/N)C(=O)OC)c1nc2ccc([N+](=O)[O-])cc2[nH]c1=O (stereo not given)	> 100	> 100	> 100	> 100	> 100	> 100	> 100	> 100	> 100	> 100	> 100	> 100	> 100	> 100	> 100	> 100	> 100	> 100	> 100	> 100
CNCCCNC(=S)Cn1cc(C)c(=O)[nH]c1=O	> 100	39.4	> 68	> 54	> 100	> 75.5	> 100	> 96.1	> 100	> 100	> 69.6	> 100	> 100	> 100	> 100	> 100	> 100	> 100	> 100	> 59.4
O=C1c2c(Br)sc(Br)c2[C@@H](Cl)[C@H]1Cl	39.3	38.8	48.8	20.5	35.5	> 100	> 100	42	> 100	51	39.1	40.3	36.4	10.9	54.6	36.7	34.1	9.14	34.8	30.9
